Data reported in patent US5902826A, “Platinum (IV) complex and pharmaceutical composition comprising the same” (SS Pharmaceutical Co., Ltd., priority 1997, dated 1999).

What was measured:
[1] = background statement, cited from earlier work
[2] = LD50 (50% lethal dose by single intraperitoneal administration); type: in vivo, mouse; details: 50% lethal dose by single intraperitoneal administration, obtained at the time of dose setting
[3] = background statement, derivative of cisplatin; cited from earlier work
[4] = tested on: mouse M5076 tumor (M5076 reticulosarcoma); experiment: Antitumor effect on mouse M5076 tumor (M5076 reticulosarcoma), s.c.-p.o.; type: in vivo; details: for TI (therapeutic index): calculated from LD50 (single i.p.) and ID50 (p.o.); for dosage of GImax (in parentheses): dosage giving GImax, no mortal case; for dosage of GImax (in parentheses) / ID50 (dosage by which the GI value after 5 administrations shows 50%): p.o. once a day for 5 days; for GImax (maximum growth inhibition rate in the dosage range by which no mortal case can be found): male BDF1 mouse, 1×10^6 cells s.c., drug p.o. once a day for 5 days, 30 days of observation, average tumor weights vs non-treated group; for ID50 (dosage by which the GI value after 5 administrations shows 50%): calculated from linear regression line of GI at each dosage
Procedure: Test on antitumor effect on mouse M5076 tumor
A total of 1×10^6 cells of mouse M5076 tumor were transplanted subcutaneously (s.c.) of a 6-week age male BDF1 mouse, a drug (compound of the present invention) was administered orally (p.o.) once a day for 5 days starting on the next day and then, after 30 days of observation, growth inhibition rate (GI) was calculated from the average tumor weights in the drug-treated group and the non-treated group. […] Each of the drugs to be tested was prepared just before its use by dissolving or suspending the drug (compound of the present invention) in olive oil using a handy sonicator. The dosage was 0.1 ml per 10 g mouse body weight. In Table 1, GImax is the maximum value (%) of GI in the dosage range by which no mortal case can be found, and its dosage (mg/kg) is shown in parentheses.

Row | Molecule | renal toxicity ([1]; derivative of cisplatin) | LD50 [2] | solubility in water [3] | TI (therapeutic index) [4] | dosage of GImax (in parentheses) [4] | GImax (maximum growth inhibition rate in the dosage range by which no mortal case can be found) [4] | ID50 (dosage by which the GI value after 5 administrations shows 50%) [4] | nephropathy as a side effect [1]
1 | N.N.O=C([O-])C1(C(=O)[O-])CCC1.[Pt+2] [Carboplatin, carboplatin, reference compound] | reduced renal toxicity | 245.0 mg/kg | increased solubility in water | 2.0 | 256.0 mg/kg | 75.3% | 119.9 mg/kg | 
2 | 1,1-cyclobutanedicarboxylato trans-dihydroxo (1,3-diamino-2-propanol)platinum (IV) [Compound 1] |  | > 200.0 mg/kg |  | > 25.0 | 32.0 mg/kg | 95.6% | < 8.0 mg/kg | 
3 | trans-bis (acetato) 1,1-cyclobutanedicarboxylato (1,3-diamino-2-propanol) platinum (IV) [Compound 5] |  | 353.0 mg/kg |  | 9.2 | 64.0 mg/kg | 61.4% | 38.4 mg/kg | 
4 | O=C([O][Pt-2]12([O]C(=O)C(F)(F)F)([NH2+]CC(O)C[NH2+]1)[O]C(=O)C1(CCC1)C(=O)[O]2)C(F)(F)F (stereo not drawn) [Compound 18, 1,1-cyclobutanedicarboxylato trans-bis(trifluoroacetato) (1,3-diamino-2-propanol)platinum (IV)] |  | 176.8 mg/kg |  | 18.4 | 32.0 mg/kg | 95.6% | 9.6 mg/kg | 
5 | N.N.[Cl][Pt][Cl] [Cisplatin, cisplatin, reference compound] |  |  |  |  | 8.0 mg/kg | 74.5% | 3.2 mg/kg | sometimes causes serious nephropathy
6 | O=C(OC1C[NH2+][Pt-2]2([O]C(=O)C(F)(F)F)([O]C(=O)C(F)(F)F)([NH2+]C1)[O]C(=O)C1(CCC1)C(=O)[O]2)C(F)(F)F (stereo not drawn) [Compound 11, 1,1-cyclobutanedicarboxylato trans-bis(trifluoroacetato) (O-trifluoroacetyl-1,3-diamino-2-propanol)platinum (IV)] |  | 176.5 mg/kg |  | 17.3 | 32.0 mg/kg | 86.5% | 10.2 mg/kg | 
